For one series, the system named is Candida krusei. Nature of the series: In vitro assay for antifungal activity (MIC80). As to conditions: concentration at which 80% inhibition of fungus growth occurs, RPMI 1640, alamarBlue, 24 hours, duplicate; for MIC80: Pichia kudriavzevii. The series is classed as cell-based. The procedure: (§1) Each fungal strain to be tested was inoculated onto Sabouraud dextrose agar, YM agar, and potato dextrose agar and cultured at 35° C. for two to three days. Single colonies of such of the yeast fungi were collected from the culture and suspended in 5 ml of 0.85% sterile saline, in an appropriate amount so that the absorbance at 530 nm became 0.108. The suspensions was diluted serially by 1:50 (RPMI 1640 media:sterile saline) and then further diluted by 1:20 (RPMI 1640 media:sterile saline) to prepare liquid inocula having a cell count ranging from 1.0×10^3 to 5.0×10^3 CFU/ml.
(§2) Antifungal samples were prepared by serially diluting each of the compounds of the present invention in RPMI 1640 media to concentrations range from 0.0156 to 32 μg/ml. As an excipient, DMSO was added to the antifungal sample to a final concentration of 1% (VAT). 0.1 ml of each of the serially diluted test solution was added to each well of 96 well plate, followed by adding 0.1 ml of each of the fungal inocula thereto.
(§3) At a given concentration of the test compound, the fungus growth was observed, after 24 hours, with the naked eye for all yeast species except for Cryptococcus neoformans, and the filamentous fungus growth was observed, after 48 hours. Also, using the growth indicator alamarBlue, MIC80, the concentration of the test compound at which 80% inhibition of the fungus growth occurs was determined based on the value observed for the negative control.

Series [1] has as its system Candida albicans. In words: In vitro assay for antifungal activity (MIC80). Format: cell-based. As to conditions: concentration at which 80% inhibition of fungus growth occurs, RPMI 1640, alamarBlue, 24 hours, duplicate; for MIC80: Candida albicans. The procedure: as §1, §2, §3
Background: Resazurin is reduced to fluorescent resorufin, in cell work by metabolically active cells.

Another series concerns Candida glabrata. Nature of the series: In vitro assay for antifungal activity (MIC80). The series is classed as cell-based. The note with it: concentration at which 80% inhibition of fungus growth occurs, RPMI 1640, alamarBlue, 24 hours, duplicate; for MIC80: Nakaseomyces glabratus. How it is done:
as §1, §2, §3

The test system of a further series is Candida tropicallis. Nature of the series: In vitro assay for antifungal activity (MIC80). Format: cell-based. As to conditions: concentration at which 80% inhibition of fungus growth occurs, RPMI 1640, alamarBlue, 24 hours, duplicate; for MIC80: Candida. The procedure: as §1, §2, §3
The test system of the next series is Cryptococcus neoformans. In words: In vitro assay for antifungal activity (MIC80). The series is classed as cell-based. As to conditions: concentration at which 80% inhibition of fungus growth occurs, RPMI 1640, alamarBlue, duplicate; for MIC80: Cryptococcus neoformans. The procedure:
as §1, §2, §3

The test system of the next series is Candida parapsilosis. Nature of the series: In vitro assay for antifungal activity (MIC80). Format: cell-based. The note with it: concentration at which 80% inhibition of fungus growth occurs, RPMI 1640, alamarBlue, 24 hours, duplicate; for MIC80: Lodderomyces parapsilosis. How it is done: as §1, §2, §3
In series [2] the test system is Candida albicans. Nature of the series: In vivo assay for antifungal activity (survival of infected mice). As to conditions: male mice, Candida albicans i.v.; 10 mg/kg orally once a day for seven days from 2 hours after infection; survival 28 days after infection. How it is done:
0.1 mL of a suspension containing 5×10^7 CFU/ml of Candida albicans was administered to each of 10 male mice by intravenous injection. 10 mg/kg of each of the test compounds to orally administer to the inoculated mouse 2 hours after the fungal infection. The test compound was administered once a day for seven days. The number of mice which survived the fungal infection for 28 days after the fungal infection was determined as % survival for each test group, and the results are given in Table 7: […]

A short description of series [3]: Assay for subacute toxicity in mice. Format: in vivo. How it is done:
Subacute cytotoxicity tests were conducted by administering Example compounds 41 and 45, each suspended in aqueous 0.5% methylcellulose to mice once a day for 2 weeks.

Where [4] appears, read: mice, suspended in aqueous 0.5% methylcellulose, once a day for 2 weeks.

Values after ≈ are worked out from the molar mass of the structure shown.

What is called MIC80 is the lowest concentration that inhibits either 80% of growth or 80% of the strains tested, depending on the study. A high value points to weaker potency. `C[C@@H](n1cc(N2CCN(c3ccc(Cl)cc3)C2=O)cn1)[C@](O)(Cn1cncn1)c1ccc(F)cc1F` [Example 1, 1-(4-Chlorophenyl)-3-(1-((2R,3R)-3-(2,4-difluorophenyl)-3-hydroxy-4-(1H-1,2,4-triazol-1-yl)butan-2-yl)-1H-pyrazol-4-yl)imidazolidin-2-one]: the MIC80 against Candida krusei is 2 µg/mL (≈ 3.89 µM); against Candida albicans [1], ≤ 0.015 µg/mL; with Candida glabrata, 8 µg/mL (≈ 15.6 µM); with Candida tropicallis it was 1 µg/mL (≈ 1.95 µM); against Cryptococcus neoformans it was 0.25 µg/mL (≈ 0.486 µM); with Candida parapsilosis it was 0.125 µg/mL (≈ 0.243 µM).
In the case of `C[C@@H](n1cc(-n2ccn(-c3ccc(Cl)cc3)c2=O)cn1)[C@](O)(Cn1cncn1)c1ccc(F)cc1F` [Example 23, 3-(4-Chlorophenyl)-1-(1-((2R,3R)-3-(2,4-difluorophenyl)-3-hydroxy-4-(1H-1,2,4-triazol-1-yl)butan-2-yl)-1H-pyrazol-4-yl)-1H-imidazole-2(3H)-one], the MIC80 against Candida krusei was 0.5 µg/mL (≈ 0.977 µM); with Candida albicans [1], ≤ 0.015 µg/mL; in the series on Candida glabrata, 4 µg/mL (≈ 7.81 µM); against Candida tropicallis, 0.125 µg/mL (≈ 0.244 µM); in the series on Cryptococcus neoformans, 0.125 µg/mL (≈ 0.244 µM); in the series on Candida parapsilosis, ≤ 0.015 µg/mL.
For the compound `C[C@@H](n1cc(CCc2ccc(F)cc2)cn1)[C@](O)(Cn1cncn1)c1ccc(F)cc1F` [Example 38, (2R,3R)-2-(2,4-Difluorophenyl)-3-(4-(4-fluorophenethyl)-1H-pyrazol-1-yl)-1-(1H-1,2,4-triazol-1-yl)butan-2-ol], the MIC80 was 0.25 µg/mL (≈ 0.566 µM) with Candida krusei; ≤ 0.015 µg/mL in the series on Candida albicans [1]; 2 µg/mL (≈ 4.53 µM) against Candida glabrata; ≤ 0.015 µg/mL in the series with Candida tropicallis; 0.125 µg/mL (≈ 0.283 µM) in the series with Cryptococcus neoformans; ≤ 0.015 µg/mL in the series with Candida parapsilosis.
Consider `C[C@@H](n1cc(CCc2ccc(Cl)cc2)cn1)[C@](O)(Cn1cncn1)c1ccc(F)cc1F` [Example 39, (2R,3R)-3-(4-(4-Chlorophenethyl)-1H-pyrazol-1-yl)-2-(2,4-difluorophenyl)-1-(1H-1,2,4-triazol-1-yl)butan-2-ol], for which the MIC80 with Candida krusei was 0.5 µg/mL (≈ 1.09 µM); against Candida albicans [1] it was ≤ 0.015 µg/mL; in the series on Candida glabrata, 1 µg/mL (≈ 2.18 µM); against Candida tropicallis, 0.062 µg/mL (≈ 0.135 µM); against Cryptococcus neoformans, ≤ 0.015 µg/mL; in the series on Candida parapsilosis it was ≤ 0.015 µg/mL.
For `C[C@@H](n1cc(/C=C/c2ccc(F)cc2)cn1)[C@](O)(Cn1cncn1)c1ccc(F)cc1F` [Example 40, (2R,3R,E)-2-(2,4-Difluorophenyl)-3-(4-(4-fluorostyryl)-1H-pyrazol-1-yl)-1-(1H-1,2,4-triazol-1-yl)butan-2-ol], the MIC80 with Candida krusei was 0.25 µg/mL (≈ 0.569 µM); in the series with Candida albicans [1] it was ≤ 0.015 µg/mL; in the series on Candida glabrata, 2 µg/mL (≈ 4.55 µM); with Candida tropicallis, ≤ 0.015 µg/mL; against Cryptococcus neoformans, 0.031 µg/mL (≈ 0.0705 µM); against Candida parapsilosis it was ≤ 0.015 µg/mL.
For `C[C@@H](n1cc(/C=C/c2ccc(Cl)cc2)cn1)[C@](O)(Cn1cncn1)c1ccc(F)cc1F` [Example 41, (2R,3R,E)-3-(4-(4-Chlorostyryl)-1H-pyrazol-1-yl)-2-(2,4-difluorophenyl)-1-(1H-1,2,4-triazol-1-yl)butan-2-ol], the “% Survival” value in the series with Candida albicans [2] amounted to 100%. For the same compound, in series [3] (setting [4]), the “changes in the living states, organs, liver enzyme and liver weight” value is “no changes”. The toxic syndromes result in series [3] (setting [4]) is on record as “none of the mice were observed to suffer from toxic syndromes”. The MIC80 with Candida krusei is 0.5 µg/mL (≈ 1.1 µM); in the series on Candida albicans [1], ≤ 0.015 µg/mL; in the series with Candida glabrata, 1 µg/mL (≈ 2.19 µM); in the series on Candida tropicallis, 0.125 µg/mL (≈ 0.274 µM); with Cryptococcus neoformans, ≤ 0.015 µg/mL; in the series on Candida parapsilosis, ≤ 0.015 µg/mL.
As to `C[C@@H](n1cc(C#Cc2ccc(F)cc2)cn1)[C@](O)(Cn1cncn1)c1ccc(F)cc1F` [Example 45], the “% Survival” value in the series with Candida albicans [2] was 100%. In series [3] (mouse, in vivo), the toxic syndromes result is “none of the mice were observed to suffer from toxic syndromes”. In addition, in the series with Candida krusei, the “MIC80 Candida krusei” value is 0.5 µg/mL (≈ 1.14 µM). In addition, in the series with Candida albicans [1], the “MIC80 Candida albicans” value is “≦0.015 μg/ml”. Also, in the series with Candida glabrata, the “MIC80 Candida glabrata” value amounted to 2 µg/mL (≈ 4.57 µM). The “MIC80 Candida tropicallis” value with Candida tropicallis is “≦0.015 μg/ml”. Besides, the “MIC80 Cryptococcus neoformans” value against Cryptococcus neoformans worked out at 0.062 µg/mL (≈ 0.142 µM). For the same compound, the “MIC80 Candida parapsilosis” value with Candida parapsilosis was “≦0.015 μg/ml”.
With `C[C@@H](n1cc(/C=C/c2cnccn2)cn1)[C@](O)(Cn1cncn1)c1ccc(F)cc1F` [Example 53, (2R,3R,E)-2-(2,4-Difluorophenyl)-3-(4-(2-(pyrazin-2-yl)vinyl)-1H-pyrazol-1-yl)-1-(1H-1,2,4-triazol-1-yl)butan-2-ol], the MIC80 in the series with Candida krusei is 4 µg/mL (≈ 9.45 µM); against Candida albicans [1] it was 0.125 µg/mL (≈ 0.295 µM); in the series on Cryptococcus neoformans, 1 µg/mL (≈ 2.36 µM); in the series on Candida parapsilosis, 0.125 µg/mL (≈ 0.295 µM).
Turning to `OC(Cn1cncn1)(Cn1cncn1)c1ccc(F)cc1F` [Fluconazole, fluconazole, reference compound], the “% Survival” value in the series with Candida albicans [2] is on record as 50%. Besides, the MIC80 against Candida krusei is 4 µg/mL (≈ 13.1 µM); against Candida albicans [1] it was 4 µg/mL (≈ 13.1 µM); with Candida glabrata it was > 32 µg/mL; against Candida tropicallis, > 32 µg/mL; against Cryptococcus neoformans, 32 µg/mL (≈ 104 µM); against Candida parapsilosis, > 32 µg/mL.

The values above are taken from US8063229B2, “Antifungal triazole derivatives, method for the preparation thereof and pharmaceutical composition containing same” (Daewoong Pharmaceutical Co., Ltd., priority 2006, dated 2011).
